From patent US20230255953A1, “USE OF ROLUPERIDONE IN PREVENTING RELAPSE IN SCHIZOPHRENIA PATIENTS” (Minerva Neurosciences, Inc., priority 2022, published 2023)

Legend:
Assay type in all cases: in vivo, human
[1] = tested on: patients with negative symptoms of schizophrenia; assay: Study #1 (MIN-101C03): safety and tolerability (TEAEs, QTcF); conditions: for Patients with QTcF prolongation >500 msec and change from Baseline in QTcF >60 msec: DB period
Source text: Phase 2b Study #1 (also referred to herein as “MIN-101C03”) was a Phase 2b, double-blind (“DB”), placebo-controlled, randomized, multicenter 12-week study to evaluate the efficacy, safety, and tolerability of Roluperidone in patients ≥18 years to ≤60 years with negative symptoms of schizophrenia, followed by a 24-week open-label (“OL”) extension. The primary objective of the study was to evaluate the efficacy of Roluperidone compared to placebo in improving the negative symptoms of schizophrenia as measured by the change from Baseline in the PANSS negative factor score of the PSM (“PANSS PSM”) over 12 weeks of treatment.
The study consisted of a pretreatment screening period of up to 28 days (including washout), a 12-week, DB, placebo-controlled period, and a 24-week OL period. Eligible patients (who were symptomatically stable for at least 3 months and had scores of at least 20 on the PANSS negative subscale score) were randomized in a 1:1:1 ratio to receive oral Roluperidone (a modified-release, “MR”, formulation) 32 mg QD, Roluperidone 64 mg QD, or placebo for 12 weeks. […] During the 24-week, OL treatment extension period, patients who were initially randomized to Roluperidone 32 mg or 64 mg continued on the same dose, while patients who were initially randomized to placebo crossed over to Roluperidone 32 mg or 64 mg in a 1:1 ratio.
Clinically significant QTcF prolongation >500 msec and change from Baseline in QTcF>60 msec were reported in 2 patients of the 64 mg Roluperidone group, and in no patients in the 32 mg Roluperidone group or in the placebo group during the DB period of the study. The mean changes across all vital sign parameters were small from Baseline to the respective study visits in the DB period of the study.

[2] = tested on: patients with negative symptoms of schizophrenia; assay: Study #2 (MIN-101C07): CGI-S and CGI-I; conditions: Week 12 DB, ITT
Description: The CGI-S is a clinician-rated scale that is designed to rate the severity of the patient's illness at the time of assessment, including knowledge of the patient's history, psychosocial circumstances, symptoms, behavior, and the impact of the symptoms on the patient's ability to function relative to the clinician's past experience with patients who have the same diagnosis and similar improvement with treatment. Considering total clinical experience, a patient is assessed on severity of mental illness at the time of rating, where 1=normal (not at all ill); 2=borderline mentally ill; 3=mildly ill; 4=moderately ill; 5=markedly ill; 6=severely ill; or 7=extremely ill.
The CGI-S and CGI-I were assessed at the timepoints described in Table 7. The CGI-S and CGI-I were exploratory endpoints in Studies MIN-101C03 and MIN-101C07.
(§1) Study #2 (also referred to as “MIN101C07”) was a Phase 3, randomized, DB, placebo-controlled, parallel-group 12-week study to evaluate the efficacy and safety of Roluperidone in patients ≥18 years to ≤55 years with negative symptoms of schizophrenia, followed by a 40-week OL extension. The study consisted of a pretreatment screening period of up to 28 days (including an antipsychotic medication washout period), a 12-week, DB, placebo-controlled period, and a 40-week OL period. Eligible patients (with moderate to severe negative symptoms of schizophrenia and stable positive symptoms but without severe symptoms of suspiciousness, agitation, hostility, uncooperativeness, or poor impulse control) were randomized 1:1:1 to receive Roluperidone 32 mg QD, Roluperidone 64 mg QD (GR01/B formulation, see U.S. Pat. No. 11,464,744), or placebo, orally, for 12 weeks. […] During the 40-week OL treatment extension, patients who were initially randomized to Roluperidone 32 mg or 64 mg continued treatment with the same dose, while patients who were initially randomized to placebo crossed over to Roluperidone 32 mg or 64 mg in a 1:1 ratio.

[3] = tested on: patients with negative symptoms of schizophrenia; assay: Study #2 (MIN-101C07): rate of relapse and time to relapse; conditions: for Patients who experienced relapse (%) / Patients who experienced relapse (number) / Days to relapse (Kaplan-Meier estimates), Mean / Days to relapse (Kaplan-Meier estimates), Median: ITT, MIN-101C07
Description: “Time to relapse” in the DB period is defined as the number of days from Day 1 to the date of early trial termination due to relapse. […] Treatment differences in time to relapse in the DB period were analyzed using a Cox-regression model with treatment group and Baseline PANSS total score as covariates. For the analysis of the OL period, this analysis was repeated to analyze treatment differences in time to relapse in the study. For the OL period analysis, patients who were not observed to relapse in the study were censored on the date on which they ended the study. Kaplan-Meier plots of time to relapse in the DB period, OL period, and in the study were generated.
In some embodiments, for any of the methods disclosed herein, a relapse refers to a patient who is terminated early during treatment (or a study trial) due to worsening of psychosis or an adverse event or generalized symptom in Table 1.
as §1

[4] = Placebo in DB to 32 mg in OL (N = 59), OL period
[5] = Roluperidone Total 32+64 mg (N = 341), DB period
[6] = Roluperidone Total 32+64 mg, DB period
[7] = Roluperidone throughout, Total (N = 211), OL period

For “1H-Isoindol-1-one,2-[ [1-[2-(4-fluorophenyl)-2-oxoethyl]-4-piperidinyl]methyl]-2,3-dihydro-, hydrochloride, hydrate (1:1:2) [Roluperidone]”, the “Patients with QTcF prolongation >500 msec and change from Baseline in QTcF >60 msec” value ([1]; 32 mg) was “no patients”, the “Patients with QTcF prolongation >500 msec and change from Baseline in QTcF >60 msec” value ([1]; 64 mg) was 2 patients and the “Tolerability (TEAEs, SAEs)” value ([1]; 32 and 64 mg, up to 36 weeks of treatment) was “generally well tolerated”. For the same substance, the “QTcF prolongation >450 msec and QTcF increases relative to baseline of ≥30 msec” value ([1]; Roluperidone groups) was “dose-dependent manner”, the “Change from Baseline LS Mean: Clinical Global Impression of Severity” value ([2]; 32 mg QD) was −0.4 and the “Clinical Global Impression of Improvement, LS Mean (observed data, MMRM)” value ([2]; 32 mg QD) was 3.4. For the same substance, the “Effect Size (Cohen's d) vs Placebo: Clinical Global Impression of Improvement” value ([2]; 32 mg QD) was −0.12, the “Effect Size (Cohen's d) vs Placebo: Clinical Global Impression of Severity” value ([2]; 32 mg QD) was 0.12 and the “Change from Baseline LS Mean: Clinical Global Impression of Severity” value ([2]; 64 mg QD) was −0.5. For the same substance, the “Clinical Global Impression of Improvement, LS Mean (observed data, MMRM)” value ([2]; 64 mg QD) was 3.3, the “Effect Size (Cohen's d) vs Placebo: Clinical Global Impression of Improvement” value ([2]; 64 mg QD) was 0.02 and the “Effect Size (Cohen's d) vs Placebo: Clinical Global Impression of Severity” value ([2]; 64 mg QD) was 0.24. The “Patients who experienced relapse (%)” value ([3]; 32 mg (N = 170), DB period) was 11%, the “Patients who experienced relapse (number)” value ([3]; 32 mg (N = 170), DB period) was 18 and the “Patients who experienced relapse (number)” value ([3]; 32 mg throughout the study (N = 107), OL period) was 9. The “Days to relapse (Kaplan-Meier estimates), Mean” value (“Days to relapse … Mean” for short) ([3]; 32 mg throughout the study, OL period) was 232.4 days, the “Days to relapse … Mean” value ([3]; 32 mg, DB period) was 124.9 days and the “Days to relapse (Kaplan-Meier estimates), Median” value ([3]; 32 mg, DB period) was 137.0 days. For the same substance, the “Patients who experienced relapse (%)” value ([3]; 64 mg (N = 171), DB period) was 5%, the “Patients who experienced relapse (number)” value ([3]; 64 mg (N = 171), DB period) was 9 and the “Patients who experienced relapse (number)” value ([3]; 64 mg throughout the study (N = 104), OL period) was 10. The “Days to relapse … Mean” value ([3]; 64 mg throughout the study, OL period) was 186.7 days, the “Days to relapse … Mean” value ([3]; 64 mg, DB period) was 82.1 days and the “Patients who experienced relapse (%)” value ([3]; Overall (N = 333), OL period) was “(8%)”. The “Patients who experienced relapse (number)” value ([3]; Overall (N = 333), OL period) was 25, the “Days to relapse … Mean” value ([3]; Overall, OL period) was 254.1 days and the “Patients who experienced relapse (%)” value [3, 4] was “(10%)”. For the same substance, the “Patients who experienced relapse (number)” value [3, 4] was 6, the “Days to relapse … Mean” value ([3]; Placebo in DB to 32 mg in OL, OL period) was 253.6 days and the “Patients who experienced relapse (number)” value ([3]; Placebo in DB to 64 mg in OL (N = 63), OL period) was 0. The “Patients who experienced relapse (number)” value ([3]; Placebo in DB to Roluperidone in OL, Total (N = 122), OL period) was 6, the “Days to relapse … Mean” value ([3]; Placebo in DB to Roluperidone in OL, Total, OL period) was 260.4 days and the “Patients who experienced relapse (%)” value [3, 5] was 8%. For the same substance, the “Patients who experienced relapse (number)” value [3, 5] was 27, the “Days to relapse … Mean” value [3, 6] was 127.8 days and the “Days to relapse (Kaplan-Meier estimates), Median” value [3, 6] was 137.0 days. For the same substance, the “Patients who experienced relapse (%)” value [3, 7] was “(9%)”, the “Patients who experienced relapse (number)” value [3, 7] was 19 and the “Days to relapse … Mean” value ([3]; Roluperidone throughout, Total, OL period) was 230.9 days. For the same substance, the “Relapse by study phase” value ([3]; Study #2 (n = 513), all subjects, Double-blind (12-weeks)) was 6.8%, the “Relapse overall (discontinued because of positive symptoms worsening)” value ([3]; Study #2 (n = 513), Overall (over 52 weeks)) was 11.7% and the “Relapse by study phase” value ([3]; Study #2, Open-label (over 40 weeks)) was 7.5%.
